In PMC11124822, “Discovery and Anticancer Screening of Novel Oxindole-Based Derivative Bearing Pyridyl Group as Potent and Selective Dual FLT3/CDK2 Kinase Inhibitor” (Pharmaceuticals, 2024):

Legend:
[1] = system: ACHN; experiment: NCI-60 antiproliferative screen (SRB); assay type: cell-based, human; conditions: Homo sapiens; 10 µM single dose, 48 h; ACHN (Renal); read-out: Growth inhibition (%)
[2] = system: MALME-3M; experiment: NCI-60 antiproliferative screen (SRB); assay type: cell-based, human; conditions: Homo sapiens; 10 µM single dose, 48 h; MALME-3M (Melanoma); read-out: Growth inhibition (%)
[3] = system: NCI-H460; experiment: NCI-60 antiproliferative screen (SRB); assay type: cell-based, human; conditions: Homo sapiens; 10 µM single dose, 48 h; NCI-H460 (NSCLC); read-out: Growth inhibition (%)
[4] = system: RXF 393; experiment: NCI-60 antiproliferative screen (SRB); assay type: cell-based, human; conditions: Homo sapiens; 10 µM single dose, 48 h; RXF 393 (Renal); read-out: Growth inhibition (%)
[5] = system: SR; experiment: NCI-60 antiproliferative screen (SRB); conditions: Homo sapiens, 48 h, read-out: Growth inhibition (%)
[6] = system: SW-620; experiment: NCI-60 antiproliferative screen (SRB); assay type: cell-based, human; conditions: Homo sapiens; 10 µM single dose, 48 h; SW-620 (Colon); read-out: Growth inhibition (%)
[7] = system: MCF7; experiment: NCI-60 antiproliferative screen (SRB); assay type: cell-based, human; conditions: Homo sapiens; 10 µM single dose, 48 h; MCF7 (Breast); read-out: Growth inhibition (%)
[8] = system: HOP-62; experiment: NCI-60 antiproliferative screen (SRB); assay type: cell-based, human; conditions: Homo sapiens; 10 µM single dose, 48 h; HOP-62 (NSCLC); read-out: Growth inhibition (%)
[9] = system: SF-268; experiment: NCI-60 antiproliferative screen (SRB); assay type: cell-based, human; conditions: Homo sapiens; 10 µM single dose, 48 h; SF-268 (CNS); read-out: Growth inhibition (%)
[10] = system: 786-0; experiment: NCI-60 antiproliferative screen (SRB); assay type: cell-based, human; conditions: Homo sapiens; 10 µM single dose, 48 h; 786-0 (Renal); read-out: Growth inhibition (%)
[11] = system: DU-145; experiment: NCI-60 antiproliferative screen (SRB); assay type: cell-based, human; conditions: Homo sapiens; 10 µM single dose, 48 h; DU-145 (Prostate); read-out: Growth inhibition (%)
[12] = system: MDA-MB-435; experiment: NCI-60 antiproliferative screen (SRB); assay type: cell-based, human; conditions: Homo sapiens; 10 µM single dose, 48 h; MDA-MB-435 (Melanoma); read-out: Growth inhibition (%)
[13] = system: HOP-92; experiment: NCI-60 antiproliferative screen (SRB); assay type: cell-based, human; conditions: Homo sapiens; 10 µM single dose, 48 h; HOP-92 (NSCLC); read-out: Growth inhibition (%)
[14] = system: NCI-H322M; experiment: NCI-60 antiproliferative screen (SRB); assay type: cell-based, human; conditions: Homo sapiens; 10 µM single dose, 48 h; NCI-H322M (NSCLC); read-out: Growth inhibition (%)
[15] = system: IGROV1; experiment: NCI-60 antiproliferative screen (SRB); assay type: cell-based, human; conditions: Homo sapiens, IGROV-1; 10 µM single dose, 48 h; IGROV1 (Ovarian); read-out: Growth inhibition (%)
[16] = system: U251; experiment: NCI-60 antiproliferative screen (SRB); assay type: cell-based, human; conditions: Homo sapiens, U-251; 10 µM single dose, 48 h; U251 (CNS); read-out: Growth inhibition (%)
[17] = system: SNB-75; experiment: NCI-60 antiproliferative screen (SRB); conditions: Homo sapiens, SNB-75, 48 h, read-out: Growth inhibition (%)
Procedure: Anticancer activity was tested against 60 cancer cell lines (NCI-60) after 48h treatments with a single dosage of 10 μM of compounds by using sulforhodamine B assay [39] on the traditional 96-well platform. […] The human cancer cell lines of the NCI-60 panel are grown in RPMI 1640 medium supplemented with 5% FBS (fetal bovine serum) and 2 mM L-glutamine. […] For further analysis of promising compounds, five dose screens were performed against the NCI-60 panel. Drug treatments are performed in 5 doses using 10-fold or ½ log dose dilutions.

[18] = system: TK-10; experiment: NCI-60 antiproliferative screen (SRB); assay type: cell-based, human; conditions: Homo sapiens; 10 µM single dose, 48 h; TK-10 (Renal); read-out: Growth inhibition (%)
[19] = system: HCC-2998; experiment: NCI-60 antiproliferative screen (SRB); assay type: cell-based, human; conditions: Homo sapiens; 10 µM single dose, 48 h; HCC-2998 (Colon); read-out: Growth inhibition (%)
[20] = system: NCI-H226; experiment: NCI-60 antiproliferative screen (SRB); assay type: cell-based, human; conditions: Homo sapiens; 10 µM single dose, 48 h; NCI-H226 (NSCLC); read-out: Growth inhibition (%)
[21] = system: HT29; experiment: NCI-60 antiproliferative screen (SRB); assay type: cell-based, human; conditions: Homo sapiens, HT-29; 10 µM single dose, 48 h; HT29 (Colon); read-out: Growth inhibition (%)
[22] = system: LOX IMVI; experiment: NCI-60 antiproliferative screen (SRB); assay type: cell-based, human; conditions: Homo sapiens; 10 µM single dose, 48 h; LOX IMVI (Melanoma); read-out: Growth inhibition (%)
[23] = system: NCI-H23; experiment: NCI-60 antiproliferative screen (SRB); assay type: cell-based, human; conditions: Homo sapiens; 10 µM single dose, 48 h; NCI-H23 (NSCLC); read-out: Growth inhibition (%)
[24] = system: T-47D; experiment: NCI-60 antiproliferative screen (SRB); assay type: cell-based, human; conditions: Homo sapiens, T47D; 10 µM single dose, 48 h; T-47D (Breast); read-out: Growth inhibition (%)
[25] = system: NCI-60 human cancer cell lines; experiment: NCI-60 screen, full panel summary; assay type: cell-based; conditions: 10 µM single dose; for Mean Growth Percent: all NCI-60 cell lines
Procedure: In a comprehensive test, compounds were assayed at a single dose concentration (10^−5 M) in the full panel of NCI-60 cancer cell lines.

[26] = system: SF-539; experiment: NCI-60 antiproliferative screen (SRB); assay type: cell-based, human; conditions: Homo sapiens; 10 µM single dose, 48 h; SF-539 (CNS); read-out: Growth inhibition (%)
[27] = system: HS 578T; experiment: NCI-60 antiproliferative screen (SRB); assay type: cell-based, human; conditions: Homo sapiens; 10 µM single dose, 48 h; HS 578T (Breast); read-out: Growth inhibition (%)
[28] = system: SK-MEL-5; experiment: NCI-60 antiproliferative screen (SRB); assay type: cell-based, human; conditions: Homo sapiens; 10 µM single dose, 48 h; SK-MEL-5 (Melanoma); read-out: Growth inhibition (%)

Row | Structure (SMILES) | inhibition at 10 µM [1] | inhibition at 10 µM [2] | inhibition at 10 µM [3] | inhibition at 10 µM [4] | inhibition at 10 µM [5] | inhibition at 10 µM [6] | inhibition at 10 µM [7] | inhibition at 10 µM [8] | inhibition at 10 µM [9] | inhibition at 10 µM [10] | inhibition at 10 µM [11] | inhibition at 10 µM [12] | inhibition at 10 µM [13] | inhibition at 10 µM [14] | inhibition at 10 µM [15] | inhibition at 10 µM [16] | inhibition at 10 µM [17] | inhibition at 10 µM [18] | inhibition at 10 µM [19] | inhibition at 10 µM [20] | also measured
1 | O=C1Nc2ccccc2C1=Cc1ccc(OCc2ccncc2)cc1 (mixture of isomers) [Compound 5m, (E/Z)-3-[4-(Pyridin-4-ylmethoxy)benzylidene] indolin-2-one] | 24.1% | 17.4% | 40.5% | 43.9% | 73.3% | 22% | 71.6% | 23% | 22.7% | 14.6% | 33.7% | 49.6% | 40.2% | 20.9% | 25.4% | 38.9% | 35.2% | 17.9% | 20.6% | 42.4% | inhibition at 10 µM [21]: 11.2%; inhibition at 10 µM [22]: 41.4%; inhibition at 10 µM [23]: 49.8%; inhibition at 10 µM [24]: 65.1%; Positive Cytostatic Effect (cell lines with percent growth from 0 to 50 / total number of cell lines) [25]: 14/59; Positive Cytotoxic Effect (cell lines with percent growth of <0 / total number of cell lines) [25]: 0/59; Sensitive/Total Cell Lines [25]: 14/59; The Most Sensitive Cell Line [25]: MDA-MB-468; number of cell lines with cytostatic effects [25]: 14; Mean Growth Percent [25]: 38.04; inhibition at 10 µM [26]: 24.9%; inhibition at 10 µM [27]: 17.9%; inhibition at 10 µM [28]: 90%
2 | O=C1Nc2ccc(F)cc2C1=Cc1ccc(OCc2ccncc2)cc1 (mixture of isomers) [Compound 5n, (E/Z)-5-Fluoro-3-[4-(pyridin-4-ylmethoxy)benzylidene] indolin-2-one] | 70.3% | 26.8% | 44.4% | 47.6% | 85.4% | 41.1% | 91.8% | 17% | 38.8% | 19.4% | 38.4% | 61.7% | 36.9% | 27.6% | 64.7% | 61.3% | 26.6% | 29.9% | 25.7% | 44.5% | inhibition at 10 µM [21]: 36.4%; inhibition at 10 µM [22]: 67.3%; inhibition at 10 µM [23]: 58.6%; inhibition at 10 µM [24]: 64.3%; Positive Cytostatic Effect (cell lines with percent growth from 0 to 50 / total number of cell lines) [25]: 26/59; Positive Cytotoxic Effect (cell lines with percent growth of <0 / total number of cell lines) [25]: 0/59; Sensitive/Total Cell Lines [25]: 26/59; The Most Sensitive Cell Line [25]: SK-MEL-5; number of cell lines with cytostatic effects [25]: 26; Mean Growth Percent [25]: 46.02; inhibition at 10 µM [26]: 41.7%; inhibition at 10 µM [27]: 28.9%; inhibition at 10 µM [28]: 93.1%
3 | O=C1Nc2ccc(Cl)cc2C1=Cc1ccc(OCc2ccncc2)cc1 (mixture of isomers) [Compound 5o, (E/Z)-5-Chloro-3-[4-(pyridin-4-ylmethoxy)benzylidene] indolin-2-one] | 70.2% | 43% | 57.8% | 73.8% | 88.9% | 48.3% | 92.8% | 19.7% | 55.7% | 32.4% | 49.3% | 58.7% | 16.3% | 40.6% | 84.7% | 66.9% | 21.2% | 17.7% | 12.4% | 38.3% | inhibition at 10 µM [21]: 39.7%; inhibition at 10 µM [22]: 58.7%; inhibition at 10 µM [23]: 55.3%; inhibition at 10 µM [24]: 61%; Positive Cytostatic Effect (cell lines with percent growth from 0 to 50 / total number of cell lines) [25]: 28/59; Positive Cytotoxic Effect (cell lines with percent growth of <0 / total number of cell lines) [25]: 0/59; Sensitive/Total Cell Lines [25]: 28/59; The Most Sensitive Cell Line [25]: MCF7; number of cell lines with cytostatic effects [25]: 28; Mean Growth Percent [25]: 47.19; inhibition at 10 µM [26]: 44%; inhibition at 10 µM [27]: 27%; inhibition at 10 µM [28]: 62.6%
4 | O=C1Nc2cc(Cl)ccc2C1=Cc1ccc(OCc2ccncc2)cc1 (mixture of isomers) [Compound 5p, (E/Z)-6-Chloro-3-[4-(pyridin-4-ylmethoxy)benzylidene]indolin-2-one] | 34% | 12.5% | 36.8% | 67.4% | 72.6% | 49.5% | 71.6% | 21.4% | 16.7% | 23.9% | 29.4% | 29.2% | 49.6% | 22.5% | 67.9% | 64.4% | 14.9% | -0.51% | 20.1% | 49.5% | inhibition at 10 µM [21]: 37.8%; inhibition at 10 µM [22]: 65.2%; inhibition at 10 µM [23]: 57.2%; inhibition at 10 µM [24]: 67.1%; Positive Cytostatic Effect (cell lines with percent growth from 0 to 50 / total number of cell lines) [25]: 21/59; Positive Cytotoxic Effect (cell lines with percent growth of <0 / total number of cell lines) [25]: 0/59; Sensitive/Total Cell Lines [25]: 21/59; The Most Sensitive Cell Line [25]: SF-539; number of cell lines with cytostatic effects [25]: 21; Mean Growth Percent [25]: 41.27; inhibition at 10 µM [26]: 94.2%; inhibition at 10 µM [27]: 35%; inhibition at 10 µM [28]: 65%
